Measured values published in ChEMBL document CHEMBL1147315, “A new spermatostatic glycoside from the soft coral Sinularia crispa” (J Nat Prod, 1989).
The source made the active and inactive calls. The calls are words filed in the database; no cut-off is given here.

Test system: Spermatozoa
Assay: Spermatostatic activity in rat cauda epididymal spermatozoa assessed as motility effect at 0.5 mg/mL for 30 mins by microscopic method
Format: functional, cell-based

With `C=C(CC[C@@H](C)[C@H]1[C@@H](O)C[C@H]2[C@@H]3[C@@H](O)C=C4C[C@@H](O[C@@H]5O[C@@H](C)[C@@H](OC(C)=O)[C@@H](O)[C@@H]5O)CC[C@]4(C)[C@H]3CC[C@]12C)C(C)C` the Activity was “Active”.
